Measured values published in US11987604B2, “Fusion-proteins based on human ferritin and protease-cleavable peptides and their use as chemotherapeutics carriers” (THENA BIOTECH S.R.L., priority 2017, dated 2024).

How the values were obtained:
Format in all cases: cell-based
SW620 colon cancer cells = test: Cell internalization and localization by confocal microscopy, SW620; settings: SW620, 3 h incubation at 37° C., 20 μM MIT
Protocol: (§1) Left panels: Lamin A/C staining (nuclear membrane marker, green); central panels: MIT (blue); right panels: merge. The white bar indicates a 10 μm length.
(§2) MIT concentration is 20 μM in all experiments. The white bar indicates a 20 μm length.
(§3) To determine whether MIT containing HFt based constructs undergo cell surface binding and/or internalization, they were incubated with colon cancer cells SW480 and SW620 at 37° C. for 1 or 3 h and MIT associated fluorescence was visualized by confocal microscopy. […] In particular, MIT localizes in intranuclear structures assumed to be nucleoli on the basis of size, position and shape, as previously proposed for colon carcinoma and breast cancer cells.

SW480 colon cancer cells = test: Cell internalization and localization by confocal microscopy, SW480; settings: SW480, 3 h incubation at 37° C., 20 μM MIT
Protocol: as §1, §2, §3

[1] = tested on: pancreatic Capan 1 cancer cells; test: XTT viability assay, Capan 1; settings: Homo sapiens, Capan 1 cells, read-out: killing efficacy (IC50)
[2] = tested on: pancreatic PaCa 44 cancer cells; test: XTT viability assay, PaCa 44; settings: Homo sapiens, Paca44 cells, read-out: killing efficacy (IC50)
[3] = tested on: pancreatic MiaPaCa2 cancer cells; test: XTT viability assay, MiaPaCa2; settings: Homo sapiens, MIA PaCa-2, read-out: killing efficacy (IC50)

| SMILES | MIT localization in cells (SW620 colon cancer cells) | MIT localization in cells (SW480 colon cancer cells) | IC50 [1] | IC50 [2] | IC50 [3] |
| --- | --- | --- | --- | --- | --- |
| O=C1c2c(O)ccc(O)c2C(=O)c2c(NCCNCCO)ccc(NCCNCCO)c21 [MIT, mitoxantrone] | partly present also in the cytoplasm | partly present also in the cytoplasm | – | – | – |
| Nc1ccn([C@@H]2O[C@H](CO)[C@@H](O)C2(F)F)c(=O)n1 [Gemcitabine] | – | – | 2800 nM | 6750 nM | 1150 nM |
